Patent US10308650B2, “Pesticidally active tetracyclic derivatives with sulfur containing substituents” (Syngenta Participations AG, priority 2014, dated 2019)
Like-named read-outs stand apart in the source and are kept apart here.

What was measured:
Type in all cases: in vivo
[1] = test system: Diabrotica balteata (Corn Root Worm); assay: Activity against Diabrotica balteata; conditions: 96 h, read-out: effect in at least one of the two categories (mortality or growth inhibition); for percent effect (mortality or growth inhibition) at 200 ppm: application rate of 200 ppm, maize sprouts, L2 larvae, 4 days after infestation
Procedure: Example B2: Activity Against Diabrotica balteata (Corn Root Worm)
Maize sprouts placed onto an agar layer in 24-well microtiter plates were treated with aqueous test solutions prepared from 10,000 ppm DMSO stock solutions by spraying. After drying, the plates were infested with L2 larvae (6 to 10 per well). The samples were assessed for mortality and growth inhibition in comparison to untreated samples 4 days after infestation.

[2] = test system: Euschistus heros (Neotropical Brown Stink Bug); assay: Activity against Euschistus heros; conditions: 120 h, read-out: effect in at least one of the two categories (mortality or growth inhibition); for percent effect (mortality or growth inhibition) at 200 ppm: application rate of 200 ppm, soybean leaves, N2 nymphs, 5 days after infestation; for percent control (mortality or growth inhibition) at 200 ppm: in Glycine max
Procedure: Example B3: Activity Against Euschistus heros (Neotropical Brown Stink Bug)
Soybean leaves on agar in 24-well microtiter plates were sprayed with aqueous test solutions prepared from 10,000 ppm DMSO stock solutions. After drying the leaves were infested with N2 nymphs. The samples were assessed for mortality and growth inhibition in comparison to untreated samples 5 days after infestation.

[3] = test system: Myzus persicae (Green Peach Aphid); assay: Activity against Myzus persicae: feeding/contact activity; conditions: foliar, 144 h
Procedure: Example B5: Activity Against Myzus persicae (Green Peach Aphid): Feeding/Contact Activity
Sunflower leaf discs were placed onto agar in a 24-well microtiter plate and sprayed with aqueous test solutions prepared from 10,000 ppm DMSO stock solutions. After drying, the leaf discs were infested with an aphid population of mixed ages. The samples were assessed for mortality 6 days after infestation.

[4] = test system: Myzus persicae (Green Peach Aphid); assay: Activity against Myzus persicae: intrinsic activity; conditions: 120 h
Description: Example B7: Activity Against Myzus persicae (Green Peach Aphid). Intrinsic Activity
Test compounds prepared from 10,000 ppm DMSO stock solutions were applied by pipette into 24-well microtiter plates and mixed with sucrose solution. The plates were closed with a stretched Parafilm. A plastic stencil with 24 holes was placed onto the plate and infested pea seedlings were placed directly on the Parafilm. The infested plate was closed with a gel blotting paper and another plastic stencil and then turned upside down. The samples were assessed for mortality 5 days after infestation.

[5] = test system: Plutella xylostella (Diamond Back Moth); assay: Activity against Plutella xylostella; conditions: 120 h, read-out: effect in at least one of the two categories (mortality or growth inhibition); for percent effect (mortality or growth inhibition) at 200 ppm: application rate of 200 ppm, artificial diet, L2 larvae, 5 days after infestation
Procedure: Example B8: Activity Against Plutella xylostella (Diamond Back Moth)
24-well microtiter plates with artificial diet were treated with aqueous test solutions prepared from 10,000 ppm DMSO stock solutions by pipetting. After drying, the plates were infested with L2 larvae (10 to 15 per well). The samples were assessed for mortality and growth inhibition in comparison to untreated samples 5 days after infestation.

[6] = test system: Spodoptera littoralis (Egyptian Cotton Leaf Worm); assay: Activity against Spodoptera littoralis (cotton leaf discs, spray); conditions: foliar, 72 h, read-out: control (mortality, anti-feeding effect, growth inhibition)
Procedure: Example B9: Activity Against Spodoptera littoralis (Egyptian Cotton Leaf Worm)
Cotton leaf discs were placed onto agar in 24-well microtiter plates and sprayed with aqueous test solutions prepared from 10,000 ppm DMSO stock solutions. After drying the leaf discs were infested with five L1 larvae. The samples were assessed for mortality, anti-feeding effect, and growth inhibition in comparison to untreated samples 3 days after infestation. Control of Spodoptera littoralis by a test sample is given when at least one of the categories mortality, anti-feedant effect, and growth inhibition is higher than the untreated sample.

[7] = test system: Bemisia tabaci (Cotton White Fly); assay: Activity against Bemisia tabaci: feeding/contact activity; conditions: foliar, 144 h, application rate of 200 ppm, cotton leaf discs, adult white flies, 6 days after incubation
Procedure: Example B1: Activity Against Bemisia tabaci (Cotton White Fly): Feeding/Contact Activity
Cotton leaf discs were placed on agar in 24-well microtiter plates and sprayed with aqueous test solutions prepared from 10,000 ppm DMSO stock solutions. After drying the leaf discs were infested with adult white flies. The samples were checked for mortality 6 days after incubation.

[8] = test system: Myzus persicae (Green Peach Aphid); assay: Activity against Myzus persicae: systemic activity; conditions: 144 h
Procedure: Example B6: Activity Against Myzus persicae (Green Peach Aphid). Systemic Activity
Roots of pea seedlings infested with an aphid population of mixed ages were placed directly into aqueous test solutions prepared from 10,000 DMSO stock solutions. The samples were assessed for mortality 6 days after placing seedlings into test solutions.

[9] = test system: Aedes aegypti (Yellow Fever Mosquito); assay: Activity against Aedes aegypti; conditions: 200 ppm in ethanol, dry deposit in 12 well plates, adult females, after 48 h and/or 24 h
Procedure: Example B13: Activity Against Aedes aegypti (Yellow Fever Mosquito)
Test solutions, at an application rate of 200 ppm in ethanol, were applied to 12 well tissue culture plates. Once the deposits were dry, five, two to five day old adult female Aedes aegypti were added to each well, and sustained with a 10% sucrose solution in a cotton wool plug. Assessment of knockdown was made one hour after introduction, and mortality was assessed at 24 and 48 hours after introduction.

[10] = test system: Spodoptera littoralis (Egyptian Cotton Leaf Worm); assay: Activity against Spodoptera littoralis (lettuce, uptake by the roots from agar); conditions: 144 h, read-out: effect in at least one of the three categories (mortality, anti-feeding, or growth inhibition)
Description: Example B10: Activity Against Spodoptera littoralis (Egyptian Cotton Leaf Worm)
Test compounds were applied by pipette from 10,000 ppm DMSO stock solutions into 24-well plates and mixed with agar. Lettuce seeds were placed onto the agar and the multi well plate was closed by another plate which contained also agar. After 7 days the compound was absorbed by the roots and the lettuce grew into the lid plate. The lettuce leaves were then cut off into the lid plate. Spodoptera eggs were pipetted through a plastic stencil onto a humid gel blotting paper and the lid plate was closed with it. The samples were assessed for mortality, anti-feedant effect and growth inhibition in comparison to untreated samples 6 days after infestation.

[11] = test system: Frankliniella occidentalis (Western Flower Thrips); assay: Activity against Frankliniella occidentalis: feeding/contact activity; conditions: foliar, 168 h, application rate of 200 ppm, sunflower leaf discs, population of mixed ages, 7 days after infestation
Procedure: Example B4: Activity Against Frankliniella occidentalis (Western Flower Thrips): Feeding/Contact Activity
Sunflower leaf discs were placed on agar in 24-well microtiter plates and sprayed with aqueous test solutions prepared from 10,000 DMSO stock solutions. After drying the leaf discs were infested with a Frankliniella population of mixed ages. The samples were assessed for mortality 7 days after infestation.

[12] = application rate of 200 ppm, sunflower leaf discs, aphid population of mixed ages, 6 days after infestation, read-out: mortality
[13] = test rate of 12 ppm, sucrose solution under Parafilm, 5 days after infestation, read-out: mortality
[14] = application rate of 200 ppm, cotton leaf discs, L1 larvae, 3 days after infestation
[15] = test rate of 24 ppm, roots of infested pea seedlings in test solution, 6 days, read-out: mortality

CCS(=O)(=O)c1cc2ccccc2cc1-c1nc2cc(C(F)(F)F)cnc2n1C [Compound A3, 2-(3-ethylsulfonyl-2-naphthyl)-3-methyl-6-(trifluoromethyl)imidazo[4,5-b]pyridine]
≥ 80%: percent effect (mortality or growth inhibition) at 200 ppm [1] | percent effect (mortality or growth inhibition) at 200 ppm [2] | mortality at 200 ppm [3, 12] | mortality at 12 ppm [4, 13] | percent effect (mortality or growth inhibition) at 200 ppm [5] | mortality at 200 ppm [6, 14]

CCS(=O)(=O)c1cc2nc(C(F)(F)F)n(C)c2cc1-c1nc2cc(C(F)(F)F)ncc2n1C [Compound A8, 2-[6-ethylsulfonyl-3-methyl-2-(trifluoromethyl)benzimidazol-5-yl]-3-methyl-6-(trifluoromethyl)imidazo[4,5-c]pyridine]
≥ 80%: mortality at 200 ppm [7] | percent effect (mortality or growth inhibition) at 200 ppm [1] | percent effect (mortality or growth inhibition) at 200 ppm [2] | mortality at 200 ppm [3, 12] | mortality at 24 ppm [8, 15] | percent effect (mortality or growth inhibition) at 200 ppm [5] | pest or weed control at 200 ppm [9]

CCSc1cc2ccccc2nc1-c1nc2cc(C(F)(F)F)ncc2n1C [Compound A21, 3-ethylsulfanyl-2-[3-methyl-6-(trifluoromethyl)imidazo[4,5-c]pyridin-2-yl]quinolone]
≥ 80%: percent control (mortality or growth inhibition) at 200 ppm [1] | percent control (mortality or growth inhibition) at 200 ppm [2] | mortality at 200 ppm [3] | mortality at 12 ppm [4] | percent control (mortality or growth inhibition) at 200 ppm [5] | mortality at 200 ppm [6]

CCS(=O)(=O)c1cc2ccccc2nc1-c1nc2cc(C(F)(F)F)ncc2n1C [Compound A22, 3-ethylsulfonyl-2-[3-methyl-6-(trifluoromethyl)imidazo[4,5-c]pyridin-2-yl]quinolone]
≥ 80%: percent control (mortality or growth inhibition) at 200 ppm [1] | percent control (mortality or growth inhibition) at 200 ppm [2] | mortality at 200 ppm [3] | mortality at 24 ppm [8] | mortality at 12 ppm [4] | percent control (mortality or growth inhibition) at 200 ppm [5] | mortality at 200 ppm [6] | percent control (mortality, anti-feedant effect or growth inhibition) at 12.5 ppm [10] | pest or weed control at 200 ppm [9]

CCSc1cc2ccccc2cc1-c1nc2cc(C(F)(F)F)ncc2n1C [Compound A23, 2-(3-ethylsulfanyl-2-naphthyl)-3-methyl-6-(trifluoromethyl)imidazo[4,5-c]pyridine]
≥ 80%: percent effect (mortality or growth inhibition) at 200 ppm [1] | percent effect (mortality or growth inhibition) at 200 ppm [2] | mortality at 200 ppm [3, 12] | mortality at 12 ppm [4, 13] | percent effect (mortality or growth inhibition) at 200 ppm [5]

CCS(=O)(=O)c1cc2c(nc1-c1nc3cc(C(F)(F)F)ncc3n1C)nc(C(F)(F)F)n2C [Compound A33, 6-ethylsulfonyl-1-methyl-5-[3-methyl-6-(trifluoromethyl)imidazo[4,5-c]pyridin-2-yl]-2-(trifluoromethyl)imidazo[4,5-b]pyridine]
≥ 80%: mortality at 200 ppm [7] | percent effect (mortality or growth inhibition) at 200 ppm [1] | percent effect (mortality or growth inhibition) at 200 ppm [2] | mortality at 200 ppm [11] | mortality at 200 ppm [3, 12] | mortality at 24 ppm [8, 15] | percent effect (mortality or growth inhibition) at 200 ppm [5] | mortality at 200 ppm [6, 14]

CCS(=O)(=O)c1cc2nn(C)nc2cc1-c1nc2cc(C(F)(F)F)ncc2n1C [Compound A37, 5-ethylsulfonyl-2-methyl-6-[3-methyl-6-(trifluoromethyl)imidazo[4,5-c]pyridin-2-yl]benzotriazole]
≥ 80%: percent effect (mortality or growth inhibition) at 200 ppm [1] | percent effect (mortality or growth inhibition) at 200 ppm [2] | mortality at 200 ppm [11] | mortality at 200 ppm [3, 12] | mortality at 24 ppm [8, 15] | percent effect (mortality or growth inhibition) at 200 ppm [5] | mortality at 200 ppm [6, 14]

CCSc1cc2c(cc1-c1nc3cc(C(F)(F)F)ncc3n1C)nc(C(F)(F)F)n2C [Compound A39, 2-[6-ethylsulfanyl-1-methyl-2-(trifluoromethyl)benzimidazol-5-yl]-3-methyl-6-(trifluoromethyl)imidazo[4,5-c]pyridine]
≥ 80%: percent effect (mortality or growth inhibition) at 200 ppm [1] | percent effect (mortality or growth inhibition) at 200 ppm [5] | pest or weed control at 200 ppm [9]

CCS(=O)(=O)c1cc2cc(C(F)(F)C(F)(F)F)ccc2nc1-c1nc2cc(C(F)(F)F)ncc2n1C [Compound A52, 3-ethylsulfonyl-2-[3-methyl-6-(trifluoromethyl)imidazo[4,5-c]pyridin-2-yl]-6-(1,1,2,2,2-pentafluoroethyl)quinoline]
≥ 80%: percent effect (mortality or growth inhibition) at 200 ppm [1] | percent effect (mortality or growth inhibition) at 200 ppm [2] | percent effect (mortality or growth inhibition) at 200 ppm [5] | mortality at 200 ppm [6, 14] | pest or weed control at 200 ppm [9]

CCSc1cc2c(nc1-c1nc3cc(C(F)(F)F)ncc3n1C)CC(C)(C)O2 [Compound A58, 6-ethylsulfanyl-2,2-dimethyl-5-[3-methyl-6-(trifluoromethyl)imidazo[4,5-c]pyridin-2-yl]-3H-furo[3,2-b]pyridine]
≥ 80%: mortality at 200 ppm [7] | percent effect (mortality or growth inhibition) at 200 ppm [1] | percent effect (mortality or growth inhibition) at 200 ppm [2] | mortality at 200 ppm [3, 12] | mortality at 12 ppm [4, 13] | percent effect (mortality or growth inhibition) at 200 ppm [5] | mortality at 200 ppm [6, 14]
